Dose and IC50 data for seven molecules are collected here from ChEMBL document CHEMBL1126403, “Azaheteroaromatic ethers as carbonyl bioisosteres. Synthesis and evaluation of a novel class of 5-HT3 receptor antagonists” (Bioorg Med Chem Lett, 1992).

Molecules are shown by their SMILES. pIC50: −log10 of the molar value.

Test [1] has as its system Rattus norvegicus. The test is described as follows: Compound was evaluated in vivo for its potency to antagonise serotonin 5-HT-inducedbradycardia in the anesthetized rat. It is filed as functional.
The target in test [2] is T1, Serotonin 3 (5-HT3) receptor (Rattus norvegicus, UniProt P35563+Q9JJ16).
T1 sequence (P35563 whole entry): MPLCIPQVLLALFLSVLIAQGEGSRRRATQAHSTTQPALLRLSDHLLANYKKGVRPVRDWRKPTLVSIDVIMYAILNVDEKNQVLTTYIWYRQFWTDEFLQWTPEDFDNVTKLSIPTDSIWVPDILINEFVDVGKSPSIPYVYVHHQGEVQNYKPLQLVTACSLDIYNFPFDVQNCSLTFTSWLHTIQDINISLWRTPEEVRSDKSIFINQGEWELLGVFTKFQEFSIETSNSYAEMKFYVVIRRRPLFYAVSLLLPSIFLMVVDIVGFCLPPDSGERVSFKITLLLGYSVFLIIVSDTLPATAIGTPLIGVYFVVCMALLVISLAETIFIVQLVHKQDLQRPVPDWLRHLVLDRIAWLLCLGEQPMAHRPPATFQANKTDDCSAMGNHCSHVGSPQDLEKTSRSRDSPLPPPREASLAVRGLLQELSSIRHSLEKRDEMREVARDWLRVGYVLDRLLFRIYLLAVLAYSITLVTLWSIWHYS
T1 sequence (Q9JJ16 whole entry): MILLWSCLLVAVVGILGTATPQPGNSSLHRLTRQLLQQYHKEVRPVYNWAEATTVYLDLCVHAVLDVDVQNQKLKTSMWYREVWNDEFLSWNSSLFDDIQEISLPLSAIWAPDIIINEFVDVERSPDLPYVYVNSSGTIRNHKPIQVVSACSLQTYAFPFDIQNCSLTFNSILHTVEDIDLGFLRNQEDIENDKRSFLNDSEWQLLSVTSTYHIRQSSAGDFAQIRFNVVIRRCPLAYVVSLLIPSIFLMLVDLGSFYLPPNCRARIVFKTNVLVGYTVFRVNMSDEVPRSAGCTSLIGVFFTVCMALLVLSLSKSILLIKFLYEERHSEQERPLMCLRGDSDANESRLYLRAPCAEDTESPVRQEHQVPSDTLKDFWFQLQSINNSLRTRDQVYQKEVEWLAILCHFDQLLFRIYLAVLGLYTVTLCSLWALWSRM
The test is described as follows: Binding affinity was evaluated in vitro by displacement of [3H]zacopride radioligand from 5-hydroxytryptamine 3 receptor. It is filed as protein-complex assay. Background: Displacement assays read how much labelled ligand stays bound in the presence of the test substance.

The term pIC50 denotes −log10 of the IC50, conventionally taken in molar units. Molecule `c1ccc2nc(OC3CN4CCC3CC4)ccc2c1` (stereo not drawn) registered a Dose in test [1] of 3 mg/kg. This molecule had a pIC50 in test [2] of 7.32.

`Cc1nccn1CC1CCc2c(c3ccccc3n2C)C1=O` (stereo not drawn) [ONDANSETRON]: the Dose in test [1] was found to be 0.01 mg/kg.

Take `CN1C2CCC1CC(Oc1ccc3ccccc3n1)C2` (stereo not drawn): the Dose in test [1] turned out to be 10 mg/kg. The molecule also gave a pIC50 in test [2] of 7.40.

Molecule `CN1[C@@H]2CC[C@H]1C[C@@H](OC(=O)c1cc(Cl)cc(Cl)c1)C2` [BEMESETRON] registered a Dose in test [1] of 0.1 mg/kg. Also, the pIC50 in test [2] is 7.37.

With `CN1C2CCC1CC(Oc1nc3ccccc3s1)C2` (stereo not drawn), the Dose in test [1] was 0.1 mg/kg. The pIC50 in test [2] is 8.16.

Take `COc1cc(N)c(Cl)cc1C(=O)NC1CN2CCC1CC2` (stereo not drawn) [ZACOPRIDE]: the Dose in test [1] was determined as 0.01 mg/kg. In test [2], the pIC50 was 8.66.

As for `CN1[C@@H]2CC[C@H]1C[C@@H](OC(=O)c1c[nH]c3ccccc13)C2` [TROPISETRON], in test [1], the Dose came to 0.01 mg/kg. In test [2], this molecule showed a pIC50 of 8.64.
